The values below are quoted from earlier work in patent US20060159622A1, “Pharmacodynamic assay for inhibitors of 11-beta-hydroxysteroid dehydrogenase activity in animal tissues” (priority 2003, published 2006).

The data set has as its system HSD. The following applies: normal human volunteers.

As to `CC1(C)[C@@H](OC(=O)CCC(=O)O)CC[C@]2(C)[C@H]3C(=O)C=C4[C@@H]5C[C@@](C)(C(=O)O)CC[C@]5(C)CC[C@@]4(C)[C@]3(C)CC[C@@H]12` [carbenoxolone], the insulin sensitivity result was “increased insulin sensitivity”.
